Data on 27 molecules can be found in patent US20230083973A1, “SUBSTITUTED CYCLOPROPYL-2,2'-BIP[…], ANALOGUES THEREOF, AND METHODS USING SAME” (priority 2019, published 2023).

The first assay relates to HBsAg. Description: HBsAg assay: inhibition of HBsAg in HepG2.2.15 cells (chemiluminescence immunoassay of supernatant). Format: cell-based, hepatitis B virus. To be noted: Hepatitis B virus, HepG2.2.15, 144 h, read-out: sAg EC50, HepG2.2.15 cells; HBsAg in supernatant at day 6 after exposure to compound; 0.5% DMSO. A digest of the protocol: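 HepG2.2.15 cells treated with serially diluted compounds (0.5% DMSO), medium and compound refreshed after 2–3 days, supernatant harvested at day 6. Secreted HBsAg measured by chemiluminescence immunoassay; EC50 from dose-response curves, with parallel CellTiter-Glo viability at 5,000 cells/well.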
Regarding `COc1ccc(C2CC2c2cnc(-c3ncccn3)nc2)cc1F` (single isomer, unassigned) [Example 12, trans-5-(2-(3-Fluoro-4-methoxyphenyl)cyclopropyl)-2,2′-bipyrimidine], the EC50 (commonly the concentration at which the effect is half-maximal) came to 110 nM.
In the case of `COCCOc1ccc(C2CC2c2cnc(-c3ncccn3)nc2)cc1F` (single isomer, unassigned) [Example 23, trans-5-(2-(3-Fluoro-4-(2-methoxyethoxy)phenyl)cyclopropyl)-2,2′-bipyrimidine], the EC50 amounted to 95 nM.
On the same count and under the same terms, with `Fc1ccc(C2CC2c2cnc(-c3ncccn3)nc2)cc1N1CCCC1` (single isomer, unassigned) [Example 19, trans-5-(2-(4-Fluoro-3-(pyrrolidin-1-yl)phenyl)cyclopropyl)-2,2′-bipyrimidine] the figure was 39 nM.
On to `COCCCn1ncc2c([C@@H]3C[C@H]3c3cnc(-c4ncccn4)nc3)ccc(F)c21` (relative stereo) [Example 276, trans-4-(2-([2,2′-Bipyrimidin]-5-yl)cyclopropyl)-7-fluoro-1-(3-methoxypropyl)-1H-indazole], for which the EC50 is 10 nM.
The same measure, in the same setting: with `Fc1cc([C@@H]2C[C@H]2c2cnc(-c3ncccn3)nc2)cc2ccccc12` (relative stereo) [Example 169, trans-5-(2-(4-Fluoronaphthalen-2-yl)cyclopropyl)-2,2′-bipyrimidine] the figure was 36 nM; with `COc1cc([C@@H]2C[C@H]2c2cnc(-c3ncccn3)nc2)cc(C(F)(F)F)c1` (relative stereo) [Example 163, trans-5-(2-(3-Methoxy-5-(trifluoromethyl)phenyl)cyclopropyl)-2,2′-bipyrimidine], 140 nM.
On to `COc1cc([C@@H]2C[C@H]2c2cnc(-c3cnccn3)nc2)cc(F)c1F` (relative stereo) [Example 178, trans-5-(2-(3,4-Difluoro-5-methoxyphenyl)cyclopropyl)-2-(pyrazin-2-yl)pyrimidine], for which the EC50 was 460 nM.
As to `COc1cc([C@@H]2C[C@H]2c2cnc(-c3ccccn3)nc2)cc(OC)c1OC` (relative stereo) [Example 176, trans-2-(Pyridin-2-yl)-5-(2-(3,4,5-trimethoxyphenyl)cyclopropyl)pyrimidine], the EC50 amounted to 2000 nM.
For the molecule `CC(C)OC1CN(c2cc([C@@H]3C[C@H]3c3cnc(-c4ncccn4)nc3)cc(F)c2F)C1` (relative stereo) [Example 210, trans-5-(2-(3,4-Difluoro-5-(3-isopropoxyazetidin-1-yl)phenyl)cyclopropyl)-2,2′-bipyrimidine], the EC50 amounted to 55 nM.
Same read-out and setting: next, `CC(=O)Nc1cc(C2CC2c2cnc(-c3ncccn3)nc2)ccc1Cl` (single isomer, unassigned) [Example 205, trans-N-(5-(2-([2,2′-Bipyrimidin]-5-yl)cyclopropyl)-2-chlorophenyl)acetamide]: 510 nM.

Staying with this assay, now noted: read-out: sAg EC50; HepG2.2.15 cells; HBsAg in supernatant at day 6 after exposure to compound; 0.5% DMSO.
Turning to `O[C@H]1CCN(c2cc(C3CC3c3cnc(-c4ncccn4)nc3)cc(F)c2F)C1` (single isomer, unassigned) [Example 107], the EC50 came to 21 nM.
As to `COc1cc(C2CC2c2cnc(-c3ncccn3)c3ccccc23)ccc1F` (single isomer, unassigned) [Example 194, trans-4-(2-(4-Fluoro-3-methoxyphenyl)cyclopropyl)-1-(pyrimidin-2-yl)isoquinoline], the EC50 came out at 49000 nM.
Consider `CC(=O)N1CC[C@@H](Nc2cc(C3CC3c3cnc(-c4ncccn4)nc3)cc(F)c2F)C1` (single isomer, unassigned) [Example 226], for which the EC50 is 1000 nM.
Consider `COc1ccc(C2CC2c2cnc(-c3ncccn3)nc2)cc1OC` (single isomer, unassigned) [Example 32, trans-5-(2-(3,4-Dimethoxyphenyl)cyclopropyl)-2,2′-bipyrimidine], for which the EC50 was found to be 480 nM.
Same read-out and setting: with `COc1cc(C2CC2c2cnc(-c3ncccn3)nc2)c(F)cc1Cl` (single isomer, unassigned) [Example 87, trans-5-(2-(4-Chloro-2-fluoro-5-methoxyphenyl)cyclopropyl)-2,2′-bipyrimidine] the figure was 140 nM; with `CS(=O)(=O)N1CCN(c2cc(C3CC3c3cnc(-c4ncccn4)nc3)ccc2F)CC1` (single isomer, unassigned) [Example 42, trans-5-(2-(4-Fluoro-3-(4-(methylsulfonyl)piperazin-1-yl)phenyl)cyclopropyl)-2,2′-bipyrimidine], 220 nM.
On the same count and under the same terms, next, `COc1cc(C2CC2c2cnc(-c3ncccn3)nc2)cc(F)c1F` (single isomer, unassigned) [Example 84, trans-5-(2-(3,4-Difluoro-5-methoxyphenyl)cyclopropyl)-2,2′-bipyrimidine]: 240 nM.
In the case of `COc1c(F)ccc(C2CC2c2cnc(-c3ncccn3)nc2)c1F` (single isomer, unassigned) [Example 190, trans-5-(2-(2,4-Difluoro-3-methoxyphenyl)cyclopropyl)-2,2′-bipyrimidine], the EC50 amounted to 1300 nM.
Still for that read-out and setting: with `O=C1CCCN1c1cc(C2CC2c2cnc(-c3ncccn3)nc2)ccc1F` (single isomer, unassigned) [Example 198, trans-1-(5-(2-([2,2′-Bipyrimidin]-5-yl)cyclopropyl)-2-fluorophenyl)pyrrolidin-2-one] the figure was 430 nM; with `Fc1cc(C2CC2c2cnc(-c3ncccn3)nc2)cc(N2CCCC2)c1Cl` (single isomer, unassigned) [Example 91, trans-5-(2-(4-Chloro-3-fluoro-5-(pyrrolidin-1-yl)phenyl)cyclopropyl)-2,2′-bipyrimidine], 14 nM.
Turning to `Fc1cc(C2CC2c2cnc(-c3ncccn3)nc2)cc(OC2CCCC2)c1F` (single isomer, unassigned) [Example 246, trans-5-(2-(3-(Cyclopentyloxy)-4,5-difluorophenyl)cyclopropyl)-2,2′-bipyrimidine], the EC50 was 150 nM.
On the same count and under the same terms, with `COc1cc(C2CC2c2cnc(-c3ncccn3)nc2C2CCCCC2)ccc1F` (single isomer, unassigned) [Example 78, trans-4-Cyclohexyl-5-(2-(4-fluoro-3-methoxyphenyl)cyclopropyl)-2,2′-bipyrimidine] the figure was 11000 nM; with `Fc1cc(C2CC2c2cnc(-c3ncccn3)nc2)cc(N2CC(c3ccccc3)C2)c1F` (single isomer, unassigned) [Example 255, trans-5-(2-(3,4-Difluoro-5-(3-phenylazetidin-1-yl)phenyl)cyclopropyl)-2,2′-bipyrimidine], 780 nM.
On the same count and under the same terms, next, `Fc1ccc(C2CC2c2cnc(-c3ncccn3)nc2)cc1OC(F)F` (single isomer, unassigned) [Example 185, trans-5-(2-(3-(Difluoromethoxy)-4-fluorophenyl)cyclopropyl)-2,2′-bipyrimidine]: 120 nM; `Fc1ccc(C2CC2c2cnc(-c3ncccn3)nc2)cc1N1CCC1` (single isomer, unassigned) [Example 82, trans-5-(2-(3-(Azetidin-1-yl)-4-fluorophenyl)cyclopropyl)-2,2′-bipyrimidine]: 110 nM; `CN1CC[C@H](Nc2cc(C3CC3c3cnc(-c4ncccn4)nc3)cc(F)c2F)C1` (single isomer, unassigned) [Example 229]: 3000 nM.
As for `COc1c(F)ccc(C2CC2c2cnc(-c3ncccn3)nc2)c1F` (single isomer, unassigned) [Example 189, trans-5-(2-(2,4-Difluoro-3-methoxyphenyl)cyclopropyl)-2,2′-bipyrimidine], the EC50 was determined as 120 nM.
